The results in this text go back to PubChem BioAssay (NCI).

Test systems include SF-295 CNS; DMS 114 small cell lung; OVCAR-4 ovarian; HCT-116 colon; NCI-H23 lung; OVCAR-8 ovarian; SNB-75 CNS; KM20L2 colon; SNB-78 CNS; DLD-1 colon; RPMI-8226 leukemia; DMS 273 small cell lung; PC-3 prostate.
Holding throughout (test): growth of human tumour cells (NCI), 48 h

Structures are written as SMILES.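 All cell lines were grown in 96-well plates and treated with compound for 48 hours. TGI denotes the concentration required for complete inhibition of growth.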 Some results are limits rather than exact numbers.

In the case of `COc1ccc(N2C(=O)/C(=C(\C)c3cc4ccccc4oc3=O)N=C2c2cc([N+](=O)[O-])ccc2Cl)cc1`, the TGI with SF-295 CNS, in the assay with DMS 114 small cell lung, in the assay on OVCAR-4 ovarian, in the assay on HCT-116 colon, with NCI-H23 lung and in the assay on OVCAR-8 ovarian was > 100 µM each time. In addition, the TGI with SNB-75 CNS, with KM20L2 colon, in the assay with SNB-78 CNS, with DLD-1 colon and in the assay with RPMI-8226 leukemia was > 100 µM in each case.
For `CCOC(=O)C1(C#N)C(c2ccccc2)CC(O)(c2ccc(OC)cc2)C(C(=O)c2ccc(OC)cc2)C1c1ccccc1` (stereo unspecified), the TGI in the assay with SF-295 CNS, in the assay with DMS 114 small cell lung, in the assay with DMS 273 small cell lung, in the assay on OVCAR-4 ovarian, with HCT-116 colon and with NCI-H23 lung was > 100 µM each time. Further, the TGI in the assay with OVCAR-8 ovarian was > 100 µM; in the assay on SNB-75 CNS, 95.3 µM; in the assay with KM20L2 colon it was > 100 µM; in the assay with SNB-78 CNS, > 100 µM; in the assay on DLD-1 colon, > 100 µM; in the assay with RPMI-8226 leukemia it was > 100 µM.
For `O=c1[nH]c2c(nc1NC13CC4CC(CC(C4)C1)C3)c(=O)oc1ccccc12`, the TGI in the assay on DMS 114 small cell lung, in the assay with DMS 273 small cell lung, with HCT-116 colon, in the assay with NCI-H23 lung, in the assay on OVCAR-8 ovarian and with SNB-75 CNS was > 100 µM throughout. In addition, the TGI in the assay on KM20L2 colon, in the assay with DLD-1 colon and in the assay with RPMI-8226 leukemia was > 100 µM throughout.
For `CO/N=C/c1cc(OC)c(OC)c(OC)c1`, the TGI in the assay with SF-295 CNS, in the assay with DMS 114 small cell lung, with DMS 273 small cell lung, in the assay on OVCAR-4 ovarian, in the assay on HCT-116 colon and in the assay with NCI-H23 lung was > 100 µM each time. Besides, the TGI in the assay with OVCAR-8 ovarian, in the assay on SNB-75 CNS, with KM20L2 colon, in the assay with SNB-78 CNS, in the assay with DLD-1 colon and with RPMI-8226 leukemia was > 100 µM throughout.
For `CC(=O)N(C)c1ccc(Nc2cc(C)[nH]c3ccc4ncnc4c23)cc1`, the TGI in the assay with SF-295 CNS was 39.1 µM; in the assay on DMS 114 small cell lung it was 20.4 µM; with PC-3 prostate, 18 µM; in the assay with DMS 273 small cell lung it was 24.3 µM; in the assay with OVCAR-4 ovarian it was 34 µM; with HCT-116 colon it was 16.5 µM. Besides, the TGI came out at 28 µM in the assay with NCI-H23 lung; 21.5 µM with OVCAR-8 ovarian; 30 µM with SNB-75 CNS; 37.2 µM in the assay on KM20L2 colon; 53.6 µM in the assay on SNB-78 CNS; 74.2 µM with DLD-1 colon. The compound further showed a TGI with RPMI-8226 leukemia of 82.7 µM.
`CC(C)(C)[Si](OC1CC(n2cnc3c(N)ncnc32)OC1CO)(c1ccccc1)c1ccccc1` (stereo unspecified): the TGI came out at 30.5 µM with SF-295 CNS; 54.2 µM in the assay with DMS 114 small cell lung; 35.8 µM in the assay on DMS 273 small cell lung; 28.5 µM with OVCAR-4 ovarian; 31.3 µM with HCT-116 colon; 28 µM in the assay on NCI-H23 lung. The TGI with OVCAR-8 ovarian was 33.3 µM; with KM20L2 colon, 29.5 µM; with SNB-78 CNS, > 100 µM; in the assay with DLD-1 colon it was 30 µM; with RPMI-8226 leukemia it was 43.9 µM.
For the compound `COc1ccc(C2C(Cl)C(=O)N2n2cnc3ccccc3c2=O)cc1` (stereo unspecified), the TGI in the assay on SF-295 CNS, in the assay with DMS 114 small cell lung, with DMS 273 small cell lung, in the assay with OVCAR-4 ovarian, in the assay with HCT-116 colon and in the assay with NCI-H23 lung was > 100 µM in each case. Also, the TGI is > 100 µM in the assay with OVCAR-8 ovarian; 86.2 µM in the assay on SNB-75 CNS; > 100 µM in the assay on KM20L2 colon; > 100 µM in the assay with SNB-78 CNS; > 100 µM with DLD-1 colon; > 100 µM in the assay on RPMI-8226 leukemia.
For `CCN(CC)CCC(=O)/C=C/c1ccccc1`, the TGI with SF-295 CNS is 40.1 µM; in the assay on PC-3 prostate it was 27.3 µM; in the assay on OVCAR-4 ovarian, > 94.4 µM; with HCT-116 colon, 22.4 µM; in the assay on NCI-H23 lung, 48.1 µM; in the assay with OVCAR-8 ovarian, 52.5 µM. In addition, the TGI in the assay with SNB-75 CNS was determined as 28.8 µM; in the assay on RPMI-8226 leukemia it was 7.5 µM.
For `FC(F)(F)c1ccc(N=C/C=C(/Nc2ccc(C(F)(F)F)cc2)c2ccc(Cl)cc2)cc1`, the TGI was 36.1 µM with SF-295 CNS; 75.8 µM in the assay with PC-3 prostate; 49.8 µM with OVCAR-4 ovarian; 24.5 µM in the assay with HCT-116 colon; 31.3 µM in the assay on NCI-H23 lung; 39 µM with OVCAR-8 ovarian. Further, the TGI in the assay on SNB-75 CNS amounted to 36.8 µM; in the assay on RPMI-8226 leukemia it was 84.8 µM.
Take `N#Cc1nc2ccccc2nc1N1CCN(c2ccc([N+](=O)[O-])cc2)CC1`: the TGI in the assay with SF-295 CNS, in the assay on PC-3 prostate, in the assay on OVCAR-4 ovarian, in the assay with HCT-116 colon, with NCI-H23 lung and in the assay on OVCAR-8 ovarian was > 100 µM throughout. In addition, the TGI in the assay on SNB-75 CNS and in the assay on RPMI-8226 leukemia was > 100 µM in each case.
On to `Cc1cc(C)nc(NC(=O)c2ccc(Br)s2)c1`, for which the TGI in the assay on SF-295 CNS, in the assay on PC-3 prostate, with OVCAR-4 ovarian, in the assay with HCT-116 colon, with NCI-H23 lung and in the assay with OVCAR-8 ovarian was > 100 µM throughout. For the same compound, the results for the TGI with SNB-75 CNS and with RPMI-8226 leukemia were > 100 µM and 16.6 µM, respectively.
In the case of `COc1cc2cc3c4c(cc(OC)c(OC)c4c2cc1OC)CCN3C(=O)OCCN1CCNCC1`, the TGI in the assay with SF-295 CNS came out at 28.2 µM; in the assay on DMS 273 small cell lung it was 26.5 µM; in the assay on OVCAR-4 ovarian, 31.3 µM; in the assay on HCT-116 colon it was 24.2 µM; in the assay on NCI-H23 lung, 31.8 µM; in the assay with OVCAR-8 ovarian, 29.7 µM. Also, the TGI in the assay with SNB-75 CNS amounted to 27.5 µM; in the assay with KM20L2 colon, 24.9 µM; in the assay with SNB-78 CNS, 31.4 µM; in the assay on DLD-1 colon, 29.1 µM; in the assay with RPMI-8226 leukemia, 34.6 µM.
`CC1=CC(C)C/C=C/C2C3OC3(C)C(C)C3C(Cc4c[nH]c5ccccc45)NC(=O)C23C(=O)C=CC(=O)C1O` (stereo unspecified): the TGI with SF-295 CNS was 27.8 µM; with PC-3 prostate, 30.1 µM; with OVCAR-4 ovarian, 24.3 µM; in the assay on HCT-116 colon, 8.4 µM; with NCI-H23 lung, 28.5 µM; with OVCAR-8 ovarian it was 54.3 µM. In addition, the TGI with SNB-75 CNS was 8.44 µM; in the assay on RPMI-8226 leukemia, 5.06 µM.
